Laboratory results as given in the supplement of paper PMC10307832.

Tests used:
Test in all cases: relative viability (nuclei count vs DMSO), 5 days (fraction); higher = more cells survive
[1] = compound: Cc1cnc(CNC(=O)c2c(=O)c3ccc(N4CCCN(C)CC4)nc3n3c2sc2ccccc23)cn1 [CX-5461] + Nc1ncn([C@H]2C[C@H](O)[C@@H](CO)O2)c(=O)n1 [Decitabine] (partner 2 µM)
Outline: (§1)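 Cells from lung cancer lines were seeded into 1536-well plates and, one day later, dosed by pin tool. Treatments were either a single drug or a fixed dose of an anchor drug with five library-drug doses (not always all listed) in √10 steps. After 5 days, nuclei were stained in a one-step fixation (final 0.05% Triton X-100, 1% formaldehyde, 1 ug/ml Hoechst) and counted on 4× images, and relative viability is the treated-to-vehicle nuclei ratio, as the median of duplicate plates.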

[2] = compound: Cc1cnc(CNC(=O)c2c(=O)c3ccc(N4CCCN(C)CC4)nc3n3c2sc2ccccc23)cn1 [CX-5461] + N=C(N)NC(=N)NCCc1ccccc1 [Phenformin] (partner 250 µM)
Outline: as §1

[3] = compound: Cc1cnc(CNC(=O)c2c(=O)c3ccc(N4CCCN(C)CC4)nc3n3c2sc2ccccc23)cn1 [CX-5461] + CC(=O)Nc1cccc(-n2c(=O)n(C3CC3)c(=O)c3c(Nc4ccc(I)cc4F)n(C)c(=O)c(C)c32)c1 [Trametinib] (partner 0.02 µM)
Outline: as §1

[4] = compound: O=C(Nc1cc(C(F)(F)F)cc(C(F)(F)F)c1)c1cc(Cl)ccc1O [IMD-0354] + CC1(C)CCC(c2ccc(Cl)cc2)=C(CN2CCN(c3ccc(C(=O)NS(=O)(=O)c4ccc(N[C@H](CCN5CCOCC5)CSc5ccccc5)c(S(=O)(=O)C(F)(F)F)c4)cc3)CC2)C1 [Navitoclax] (partner 0.5 µM)
Outline: as §1

Cell Line	relative viability ([1]; first compound 0.01 µM)	relative viability ([1]; first compound 0.03162 µM)	relative viability ([1]; first compound 0.1 µM)	relative viability ([1]; first compound 1 µM)	relative viability ([2]; first compound 0.01 µM)	relative viability ([2]; first compound 0.03162 µM)	relative viability ([2]; first compound 0.1 µM)	relative viability ([2]; first compound 1 µM)	relative viability ([3]; first compound 0.01 µM)	relative viability ([3]; first compound 0.03162 µM)	relative viability ([3]; first compound 0.1 µM)	relative viability ([3]; first compound 1 µM)	relative viability ([1]; first compound 0.3162 µM)	relative viability ([2]; first compound 0.3162 µM)	relative viability ([3]; first compound 0.3162 µM)	relative viability ([4]; first compound 0.04 µM)	relative viability ([4]; first compound 0.1265 µM)	relative viability ([4]; first compound 0.4 µM)	relative viability ([4]; first compound 1.265 µM)	relative viability ([4]; first compound 4 µM)
NCI-H522	0.763	0.641	0.671	0.678	0.653	0.614	0.654	0.593	0.734	0.86	0.815	0.751	–	–	–	–	–	–	–	–
HCC-15	0.684	0.654	0.605	0.354	0.514	0.53	0.372	0.163	0.419	0.31	0.383	0.34	0.69	0.467	0.376	0.659	0.652	0.362	0.297	0.166
A-427	0.593	0.603	0.52	0.481	0.338	0.348	0.36	0.223	0.815	0.798	0.661	0.578	0.269	–	0.488	0.989	0.983	0.654	0.546	0.115
NCI-H2228	–	–	–	–	0.327	0.204	0.184	0.0912	0.553	0.489	0.418	0.236	–	0.26	0.432	0.738	1.12	0.589	1.27	0.355
NCI-H1734	0.509	0.489	0.557	0.483	0.411	0.376	0.374	0.218	0.716	0.781	0.788	0.711	0.483	0.306	0.599	0.905	0.86	0.446	0.412	0.133
SK-LU-1	0.722	0.597	0.709	0.455	0.615	0.545	0.397	0.229	0.503	0.439	0.49	0.345	0.754	–	0.506	1.26	1.17	0.223	0.386	0.126
PC-14	0.246	0.202	0.152	0.114	0.761	0.511	0.499	0.319	0.718	0.821	0.391	0.151	0.204	0.229	0.76	1.04	0.937	0.425	0.192	0.103
NCI-H1915	0.266	0.259	0.284	0.283	0.375	0.364	0.376	0.31	0.285	0.326	0.327	0.307	0.244	0.32	0.315	0.708	0.857	0.412	0.661	0.219
NCI-H1666	0.768	0.671	0.737	0.731	0.542	0.551	0.505	0.507	0.895	0.891	0.719	0.65	0.701	0.548	0.821	1.09	0.932	0.83	0.153	0.174
HCC-366	0.37	0.349	0.293	0.327	0.657	0.657	0.627	0.253	0.345	0.389	0.443	0.306	0.347	0.604	0.412	1.03	1.17	0.235	0.27	0.0258
LK-2	0.329	0.278	0.302	0.279	0.611	0.443	0.386	0.111	0.83	0.818	0.834	0.725	0.162	–	0.707	1.15	0.812	–	0.777	0.247
NCI-H661	0.523	0.531	0.458	0.383	0.285	0.286	0.316	0.23	0.647	0.621	0.544	0.376	0.429	0.259	0.432	–	–	–	–	–
PC-3 [JPC-3]	0.801	–	0.842	0.77	0.479	0.449	0.467	0.455	0.822	–	0.719	0.644	0.801	0.467	0.749	0.712	0.823	0.638	0.527	0.264
NCI-H1623	–	–	–	–	0.556	0.588	0.556	0.593	–	–	–	–	–	0.616	–	–	–	–	–	–
Calu-6	–	–	–	–	–	–	–	–	–	–	–	–	–	–	–	0.94	0.903	0.355	0.122	0.104
LC-2-ad	0.805	0.867	0.809	0.79	0.618	0.627	0.564	0.442	0.901	0.96	0.931	0.847	0.795	0.398	0.912	0.408	0.395	0.199	0.0893	0.105
